Experimental data: patent publication US20070128217A1 (priority 2003, published 2007)

Columns and labels:
[1] = test system: control sera (pooled serum of ten healthy LUMC hospital workers; commercial negative donor pooled serum from the Dutch bloodbank); format: binding, human; parameters: Binding of Control serum LUMC to linear peptides / Binding of Control serum Blood-bank to linear peptides / Binding of Control serum LUMC to looped peptides / Binding of Control Serum Blood-Bank to Looped peptides / Binding of Control serum LUMC to linear peptides of the protein M of SARS-CoV Urbani / Binding of Control serum Blood-bank to linear peptides of the protein M of SARS-CoV Urbani / Binding of Control serum LUMC to looped peptides of the protein M of SARS-CoV Urbani / Binding of Control Serum Blood-Bank to Looped peptides of the protein M of SARS-CoV Urbani: unit not given here
[2] = test system: antibodies in sera from SARS patients (sera 1a, 1b, 2, 6, 37, 62, London, SARS-yellow, SARS-green); format: binding, human; parameters: Binding of serum 6 to linear peptides of protein X1 of SARS-CoV Urbani / Binding of serum 37 to linear peptides of protein X1 of SARS-CoV Urbani / Binding of serum 6 to looped/cyclic peptide (PEPSCAN-ELISA) / Binding of serum 37 to looped/cyclic peptide (PEPSCAN-ELISA) / Binding of serum 37 to looped/cyclic peptides of protein X1 of SARS-CoV Urbani / Binding of serum 6 to linear peptides of protein X2 / Binding of serum 37 to linear peptides of protein X2 / Binding of serum 37 to looped/cyclic peptides of protein X2 of SARS-CoV Urbani / Binding of serum 6 to linear peptides of protein M of SARS-CoV Urbani / Binding of serum 37 to linear peptides of protein M of SARS-CoV Urbani / Binding of serum 6 to looped/cyclic peptides of protein M of SARS-CoV Urbani / Binding of serum 37 to looped/cyclic peptides of protein M of SARS-CoV Urbani / Binding of serum 6 to linear peptides of protein X3 of SARS-CoV Urbani / Binding of serum 37 to linear peptides of protein X3 of SARS-CoV Urbani / Binding of serum 37 to looped/cyclic peptides of protein X3 of SARS-CoV Urbani / Binding of serum 6 to linear peptides of protein X4 of SARS-CoV Urbani / Binding of serum 37 to linear peptides of protein X4 of SARS-CoV Urbani / Binding of serum 37 to looped/cyclic peptides of protein X4 of SARS-CoV Urbani / Binding of serum 6 to linear peptides of protein X5 of SARS-CoV Urbani / Binding of serum 37 to linear peptides of protein X5 of SARS-CoV Urbani / Binding of serum 37 to looped/cyclic peptides of protein X5 of SARS-CoV Urbani / Binding of serum 6 to linear peptides of protein N of SARS-CoV Urbani / Binding of serum 37 to linear peptides of protein N of SARS-CoV Urbani / Binding of serum 6 to linear peptide (PEPSCAN-ELISA) / Binding of serum 1a to looped/cyclic peptides of protein N of SARS-CoV Urbani / Binding of serum 1b to looped/cyclic peptides of protein N of SARS-CoV Urbani / Binding of serum 2 to looped/cyclic peptides of protein N of SARS-CoV Urbani / Binding of serum 6 to looped/cyclic peptides of protein N of SARS-CoV Urbani / Binding of serum 37 to looped/cyclic peptides of protein N of SARS-CoV Urbani / Binding of serum 62 to looped/cyclic peptides of protein N of SARS-CoV Urbani / Binding of serum London to looped/cyclic peptides of protein N of SARS-CoV Urbani / Binding of serum SARS-green to looped/cyclic peptides of protein N of SARS-CoV Urbani: unit not given here
[3] = test system: rabbit serum obtained by immunizing a rabbit with the SARS-CoV strain Frankfurt 1; format: binding; parameters: Binding of a rabbit serum to linear peptides / Binding of a rabbit serum to looped peptides / Rabbit serum linear peptides / Rabbit serum looped peptides / Binding of a rabbit serum to linear peptides of protein N of SARS-CoV Urbani (Rabbit serum linear peptides) / Binding of a rabbit serum to looped/cyclic peptides of protein N of SARS-CoV Urbani (Rabbit serum looped peptides): unit not given here

LAAVYRINWVTGGIA
Binding of Control Serum Blood-Bank to Looped peptides of the protein M of SARS-CoV Urbani [1]: 0.4 | Binding of Control serum Blood-bank to linear peptides of the protein M of SARS-CoV Urbani [1]: 0.6 | Binding of Control serum LUMC to linear peptides of the protein M of SARS-CoV Urbani [1]: 0.5 | Binding of Control serum LUMC to looped peptides of the protein M of SARS-CoV Urbani [1]: 0.6 | Binding of serum 1a to linear peptides of protein M of SARS-CoV Urbani [2]: 0.7 | Binding of serum 1a to looped/cyclic peptides of protein M of SARS-CoV Urbani [2]: 0.8 | Binding of serum 1b to linear peptides of protein M of SARS-CoV Urbani [2]: 0.5 | Binding of serum 1b to looped/cyclic peptides of protein M of SARS-CoV Urbani [2]: 0.2 | Binding of serum 2 to linear peptides of protein M of SARS-CoV Urbani [2]: 0.6 | Binding of serum 2 to looped/cyclic peptides of protein M of SARS-CoV Urbani [2]: 0.5 | Binding of serum 6 to linear peptides of protein M of SARS-CoV Urbani [2]: 0.3 | Binding of serum 6 to looped/cyclic peptides of protein M of SARS-CoV Urbani [2]: 0.7 | Binding of serum 37 to linear peptides of protein M of SARS-CoV Urbani [2]: 0.8 | Binding of serum 37 to looped/cyclic peptides of protein M of SARS-CoV Urbani [2]: 0.5 | Binding of serum 62 to linear peptides of protein M of SARS-CoV Urbani [2]: 0.9 | Binding of serum 62 to looped/cyclic peptides of protein M of SARS-CoV Urbani [2]: 0.5 | Binding of serum London to linear peptides of protein M of SARS-CoV Urbani [2]: 0.3 | Binding of serum London to looped/cyclic peptides of protein M of SARS-CoV Urbani [2]: 0.2 | Binding of serum SARS-green to linear peptides of protein M of SARS-CoV Urbani [2]: 0.3 | Binding of serum SARS-green to looped/cyclic peptides of protein M of SARS-CoV Urbani [2]: 0.3 | Binding of serum SARS-yellow to linear peptides of protein M of SARS-CoV Urbani [2]: 0.1 | Binding of serum SARS-yellow to looped/cyclic peptides of protein M of SARS-CoV Urbani [2]: 0.3 | Rabbit serum linear peptides [3]: 0.4 | Rabbit serum looped peptides [3]: 0.0

MLLQFAYSNRNRFLY
Binding of Control Serum Blood-Bank to Looped peptides of the protein M of SARS-CoV Urbani [1]: 0.4 | Binding of Control serum Blood-bank to linear peptides of the protein M of SARS-CoV Urbani [1]: 0.6 | Binding of Control serum LUMC to linear peptides of the protein M of SARS-CoV Urbani [1]: 0.3 | Binding of Control serum LUMC to looped peptides of the protein M of SARS-CoV Urbani [1]: 0.5 | Binding of serum 1a to linear peptides of protein M of SARS-CoV Urbani [2]: 0.6 | Binding of serum 1a to looped/cyclic peptides of protein M of SARS-CoV Urbani [2]: 0.8 | Binding of serum 1b to linear peptides of protein M of SARS-CoV Urbani [2]: 0.4 | Binding of serum 1b to looped/cyclic peptides of protein M of SARS-CoV Urbani [2]: 0.2 | Binding of serum 2 to linear peptides of protein M of SARS-CoV Urbani [2]: 0.5 | Binding of serum 2 to looped/cyclic peptides of protein M of SARS-CoV Urbani [2]: 0.6 | Binding of serum 6 to linear peptides of protein M of SARS-CoV Urbani [2]: 0.2 | Binding of serum 6 to looped/cyclic peptides of protein M of SARS-CoV Urbani [2]: 1.3 | Binding of serum 37 to linear peptides of protein M of SARS-CoV Urbani [2]: 0.8 | Binding of serum 37 to looped/cyclic peptides of protein M of SARS-CoV Urbani [2]: 0.6 | Binding of serum 62 to linear peptides of protein M of SARS-CoV Urbani [2]: 0.7 | Binding of serum 62 to looped/cyclic peptides of protein M of SARS-CoV Urbani [2]: 0.5 | Binding of serum London to linear peptides of protein M of SARS-CoV Urbani [2]: 0.2 | Binding of serum London to looped/cyclic peptides of protein M of SARS-CoV Urbani [2]: 0.3 | Binding of serum SARS-green to linear peptides of protein M of SARS-CoV Urbani [2]: 0.2 | Binding of serum SARS-green to looped/cyclic peptides of protein M of SARS-CoV Urbani [2]: 0.2 | Binding of serum SARS-yellow to linear peptides of protein M of SARS-CoV Urbani [2]: 0.1 | Binding of serum SARS-yellow to looped/cyclic peptides of protein M of SARS-CoV Urbani [2]: 0.3 | Rabbit serum linear peptides [3]: 0.5 | Rabbit serum looped peptides [3]: 0.0

PVTLACFVLAAVYRI
Binding of Control Serum Blood-Bank to Looped peptides of the protein M of SARS-CoV Urbani [1]: 0.6 | Binding of Control serum Blood-bank to linear peptides of the protein M of SARS-CoV Urbani [1]: 0.5 | Binding of Control serum LUMC to linear peptides of the protein M of SARS-CoV Urbani [1]: 0.2 | Binding of Control serum LUMC to looped peptides of the protein M of SARS-CoV Urbani [1]: 0.7 | Binding of serum 1a to linear peptides of protein M of SARS-CoV Urbani [2]: 0.7 | Binding of serum 1a to looped/cyclic peptides of protein M of SARS-CoV Urbani [2]: 0.7 | Binding of serum 1b to linear peptides of protein M of SARS-CoV Urbani [2]: 0.5 | Binding of serum 1b to looped/cyclic peptides of protein M of SARS-CoV Urbani [2]: 0.6 | Binding of serum 2 to linear peptides of protein M of SARS-CoV Urbani [2]: 0.5 | Binding of serum 2 to looped/cyclic peptides of protein M of SARS-CoV Urbani [2]: 0.6 | Binding of serum 6 to linear peptides of protein M of SARS-CoV Urbani [2]: 0.3 | Binding of serum 6 to looped/cyclic peptides of protein M of SARS-CoV Urbani [2]: 0.7 | Binding of serum 37 to linear peptides of protein M of SARS-CoV Urbani [2]: 0.6 | Binding of serum 37 to looped/cyclic peptides of protein M of SARS-CoV Urbani [2]: 0.7 | Binding of serum 62 to linear peptides of protein M of SARS-CoV Urbani [2]: 0.7 | Binding of serum 62 to looped/cyclic peptides of protein M of SARS-CoV Urbani [2]: 0.7 | Binding of serum London to linear peptides of protein M of SARS-CoV Urbani [2]: 0.3 | Binding of serum London to looped/cyclic peptides of protein M of SARS-CoV Urbani [2]: 0.2 | Binding of serum SARS-green to linear peptides of protein M of SARS-CoV Urbani [2]: 0.2 | Binding of serum SARS-green to looped/cyclic peptides of protein M of SARS-CoV Urbani [2]: 0.2 | Binding of serum SARS-yellow to linear peptides of protein M of SARS-CoV Urbani [2]: 0.0 | Binding of serum SARS-yellow to looped/cyclic peptides of protein M of SARS-CoV Urbani [2]: 0.6 | Rabbit serum linear peptides [3]: 0.4 | Rabbit serum looped peptides [3]: 0.3
